Data as given in the supplement of paper PMC10307832.

Legend:
Experiment in all cases: relative viability (nuclei count vs DMSO), 5 days (fraction); higher = more cells survive
[1] = compound: C1COCCN1C2=NC(=NC3=C2OC4=C3C=CC=N4)C5=CC(=CC=C5)NC(=O)C6=CN=C(C=C6)N + O=C(c1cc(Cc2n[nH]c(=O)c3ccccc23)ccc1F)N1CCN(C(=O)C2CC2)CC1 [Olaparib] (partner 8 µM)
In short: (§1)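 Nuclei were stained with Hoechst during a one-step fixation (final 0.05% Triton X-100, 1% formaldehyde, 1 ug/ml Hoechst) carried out 5 days after dosing, then counted on 4× images. The cells, lung cancer lines in 1536-well plates, had been dosed by pin tool the day after seeding with one drug alone or a fixed anchor-drug dose plus five library-drug doses (not always all listed) in √10 steps. Relative viability is the nuclei count in treated wells divided by that in vehicle wells, and each value is the median of duplicate plates.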

SGI-1776 + Palbociclib = compound: CN1CCC(CNc2ccc3ncc(-c4cccc(OC(F)(F)F)c4)n3n2)CC1 [SGI-1776] + CC(=O)c1c(C)c2cnc(Nc3ccc(N4CCNCC4)cn3)nc2n(C2CCCC2)c1=O [Palbociclib] (partner 0.5 µM)
In short: as §1

SGI-1776 + Foretinib = compound: CN1CCC(CNc2ccc3ncc(-c4cccc(OC(F)(F)F)c4)n3n2)CC1 [SGI-1776] + COc1cc2c(Oc3ccc(NC(=O)C4(C(=O)Nc5ccc(F)cc5)CC4)cc3F)ccnc2cc1OCCCN1CCOCC1 [Foretinib] (partner 0.25 µM)
In short: as §1

Entinostat + Decitabine = compound: Nc1ccccc1NC(=O)c1ccc(CNC(=O)OCc2cccnc2)cc1 [Entinostat] + Nc1ncn([C@H]2C[C@H](O)[C@@H](CO)O2)c(=O)n1 [Decitabine] (partner 2 µM)
In short: as §1

Cell Line	relative viability ([1]; first compound 0.02 µM)	relative viability ([1]; first compound 0.06325 µM)	relative viability ([1]; first compound 0.2 µM)	relative viability ([1]; first compound 0.6325 µM)	relative viability ([1]; first compound 2 µM)	relative viability (SGI-1776 + Palbociclib; first compound 0.08 µM)	relative viability (SGI-1776 + Palbociclib; first compound 0.8 µM)	relative viability (SGI-1776 + Palbociclib; first compound 2.53 µM)	relative viability (SGI-1776 + Palbociclib; first compound 8 µM)	relative viability (SGI-1776 + Foretinib; first compound 0.08 µM)	relative viability (SGI-1776 + Foretinib; first compound 0.8 µM)	relative viability (SGI-1776 + Foretinib; first compound 2.53 µM)	relative viability (SGI-1776 + Foretinib; first compound 8 µM)	relative viability (Entinostat + Decitabine; first compound 0.02 µM)	relative viability (Entinostat + Decitabine; first compound 0.06325 µM)	relative viability (Entinostat + Decitabine; first compound 0.2 µM)	relative viability (Entinostat + Decitabine; first compound 0.6325 µM)	relative viability (Entinostat + Decitabine; first compound 2 µM)
201T	0.854	0.879	0.837	0.923	0.458	0.36	0.346	0.342	0.327	1.13	1.09	1.03	1.02	0.82	0.692	0.777	0.401	0.406
A549	0.39	0.353	0.311	0.243	0.239	–	–	–	–	1.07	0.891	0.752	0.277	0.27	0.251	0.205	0.177	0.0922
A-427	0.795	0.717	0.72	0.789	0.598	0.567	0.541	0.547	0.456	1.15	1.17	0.972	0.983	0.536	0.507	0.528	0.477	0.438
ABC-1	0.767	0.945	0.726	1.04	0.685	0.661	0.98	0.501	0.431	1.06	0.974	0.984	0.64	1.04	1.41	1.1	0.91	0.626
BEN	0.935	1.17	1.23	1.09	0.819	0.447	0.476	0.457	0.47	0.72	0.623	0.472	0.552	0.774	0.956	0.657	0.447	0.345
CAL-12T	0.66	0.727	0.69	0.764	0.569	0.425	0.518	0.641	0.418	1.21	1.08	1.25	0.577	–	–	–	–	–
COR-L23	0.391	0.371	0.317	0.353	0.271	0.282	0.309	0.32	0.247	0.976	0.92	1.02	0.931	0.402	0.413	0.356	0.217	0.141
COR-L 105	0.71	0.649	0.607	0.671	0.63	0.477	0.388	0.396	0.355	0.857	1.1	0.72	0.734	0.64	0.641	0.595	0.466	0.337
Calu-6	0.685	0.68	0.604	0.528	0.467	–	–	–	–	0.91	0.88	0.875	0.344	–	–	–	–	–
ChaGo-K-1	0.435	0.402	0.401	0.409	0.331	0.911	0.974	0.967	0.911	0.834	0.96	0.993	0.741	0.572	0.545	0.543	0.443	0.45
EBC-1	0.7	0.77	0.582	0.668	0.356	–	–	–	–	0.0952	0.0955	0.127	0.0874	–	–	–	–	–
EKVX	0.929	0.831	0.88	0.832	0.563	0.436	0.431	0.37	0.318	1.36	0.837	0.863	0.749	0.307	0.351	0.281	0.207	0.244
EMC-BAC-2	0.483	0.484	0.472	0.476	0.445	0.537	0.52	0.518	0.514	1.02	0.99	1.11	0.846	0.988	0.916	0.815	0.486	0.364
EPLC-272H	0.732	0.807	0.547	0.721	0.58	0.32	0.336	0.354	0.226	0.82	0.66	0.768	0.528	0.409	0.383	0.325	0.25	0.218
H3255	0.522	0.531	0.531	0.56	0.436	0.363	0.34	0.328	0.311	1.02	0.994	0.801	0.864	0.58	0.556	0.493	0.268	0.218
HARA	0.845	0.727	1.09	0.764	0.75	0.308	0.289	0.261	0.264	1.04	0.946	0.718	0.913	0.602	0.521	0.557	0.456	0.276
HCC-15	0.757	0.775	0.735	0.671	0.628	0.694	0.666	0.772	0.51	0.989	1.07	1.04	0.824	0.622	0.508	0.46	0.261	0.151
HCC-44	0.94	1.06	1.02	1.08	0.918	0.976	0.995	0.953	0.919	–	–	–	–	0.997	0.841	0.938	0.721	0.611
HCC-78	0.751	0.896	0.85	0.842	0.583	0.481	0.428	0.446	0.458	0.553	0.566	0.595	0.606	0.823	0.726	0.595	0.594	0.371
HCC-366	0.488	0.419	0.322	0.412	0.218	0.395	0.476	0.368	0.33	0.907	0.963	0.961	0.392	0.312	0.315	0.168	0.155	0.0591
HCC-827	0.567	0.61	0.771	0.575	0.589	0.504	0.513	0.509	0.383	1.04	1.13	1.09	0.647	0.318	0.338	0.315	0.223	0.226

Cell Line	relative viability ([1]; first compound 0.02 µM)	relative viability ([1]; first compound 0.06325 µM)	relative viability ([1]; first compound 0.2 µM)	relative viability ([1]; first compound 0.6325 µM)	relative viability ([1]; first compound 2 µM)	relative viability (SGI-1776 + Palbociclib; first compound 0.08 µM)	relative viability (SGI-1776 + Palbociclib; first compound 0.8 µM)	relative viability (SGI-1776 + Palbociclib; first compound 2.53 µM)	relative viability (SGI-1776 + Palbociclib; first compound 8 µM)	relative viability (SGI-1776 + Foretinib; first compound 0.08 µM)	relative viability (SGI-1776 + Foretinib; first compound 0.8 µM)	relative viability (SGI-1776 + Foretinib; first compound 2.53 µM)	relative viability (SGI-1776 + Foretinib; first compound 8 µM)	relative viability (Entinostat + Decitabine; first compound 0.02 µM)	relative viability (Entinostat + Decitabine; first compound 0.06325 µM)	relative viability (Entinostat + Decitabine; first compound 0.2 µM)	relative viability (Entinostat + Decitabine; first compound 0.6325 µM)	relative viability (Entinostat + Decitabine; first compound 2 µM)
HOP-62	0.632	0.5	0.447	0.7	0.255	0.548	0.428	0.423	0.379	1.2	1.13	1.03	1.1	0.272	0.248	0.248	0.213	0.132
IA-LM	0.858	0.826	0.689	0.616	0.394	–	–	–	–	1.13	1.2	1.3	1.07	–	–	–	–	–
LC-2-ad	0.678	0.705	0.682	0.846	0.648	0.495	0.535	0.457	0.467	0.999	0.922	0.934	0.685	0.833	0.74	0.642	0.611	0.438
LCLC-97TM1	0.533	0.388	0.341	0.33	0.287	0.252	0.231	0.198	0.228	0.932	0.952	0.945	0.829	0.23	0.213	0.314	0.163	0.16
LCLC-103H	0.732	0.799	0.815	0.745	0.502	0.524	0.456	0.475	0.401	0.88	0.705	0.748	0.637	0.714	0.72	0.757	0.488	0.472
LK-2	0.609	0.902	0.691	0.651	0.464	0.513	0.735	0.647	0.534	1.26	1.23	1.35	0.682	0.311	0.335	0.262	0.165	0.115
LOU-NH91	0.928	0.959	0.942	0.864	0.745	0.647	0.552	0.536	0.537	1.06	0.893	0.926	0.762	0.813	0.788	0.802	0.771	0.689
LU99A	0.264	0.27	0.226	0.262	0.222	0.415	0.441	0.407	0.381	0.868	0.8	0.784	0.41	0.953	0.952	0.749	0.696	0.646
LXF-289	1.13	1.18	1.17	1.06	0.803	0.593	0.583	0.619	0.602	0.98	0.974	1.01	0.971	0.422	0.381	0.446	0.358	0.31
NCI-H23	0.417	0.314	0.281	0.3	0.226	0.507	0.574	0.421	0.482	0.969	0.932	0.781	0.333	0.32	0.344	0.3	0.268	0.234
NCI-H322M	0.793	0.77	0.685	0.943	0.586	0.515	0.508	0.476	0.451	0.93	1.07	0.859	0.683	0.742	0.722	0.787	0.725	0.665
NCI-H522	0.584	0.649	0.63	0.554	0.525	1.22	1.25	0.953	0.731	–	–	–	–	0.65	0.684	0.693	0.666	0.639
NCI-H596	0.589	0.668	0.601	0.747	0.621	–	–	–	–	0.808	0.748	0.79	1.05	0.9	1.11	0.869	1.01	0.66
NCI-H1299	0.928	1.04	0.993	0.962	0.754	–	–	–	–	1.08	1.11	1.07	1.01	–	–	–	–	–
NCI-H1563	–	–	–	–	–	–	–	–	–	0.949	0.952	0.92	0.888	–	–	–	–	–
NCI-H1623	–	–	–	–	–	–	–	–	–	0.984	0.859	0.893	0.901	–	–	–	–	–
NCI-H1648	0.83	0.8	0.666	0.566	1.18	0.286	0.327	0.226	0.319	–	–	–	–	0.476	0.524	0.416	0.326	0.285
NCI-H1703	0.335	0.447	0.372	0.308	0.222	–	–	–	–	0.403	0.322	0.291	0.282	–	–	–	–	–
NCI-H1792	0.826	0.598	0.303	0.235	0.219	0.659	0.626	0.59	0.615	–	–	–	–	0.613	0.505	0.48	0.354	0.196
NCI-H2228	0.822	0.69	0.481	0.564	0.33	0.787	1.1	0.715	0.537	0.889	0.613	0.803	0.446	–	–	–	–	–
